Assays:
Orai1/STIM1 = target: T1, Orai1/STIM1 (Homo sapiens, UniProt Q96D31); assay: Fluorescence-based assay of store-operated calcium entry in Orai1/STIM1 stable cells; format: cell-based; conditions: HEK-293 cells stably expressing human STIM1 and Orai1; inhibition of Peak-Basal fluorescence signal after calcium addition; read-out: Orai1/STIM1 (IC50, μmol)
T1 construct: c-myc (C); expressed in transfected cells; host or cells: HEK-293 cells stably expressing recombinant human STIM1 and Orai1
Description: (§1) Fluorescence-based assays are used for screening the compounds described herein, such as compounds of Formulas (I), (IA), (II), (IIA), (III), (IIIA), (IV), (IVA), (V), (VA), (VI), (VIA), (VII), (VIIA), (VIII), (VIIIA), (IX), (IXA), (X), (XI), (XIA), (XII), or (XIIA) which modulate intracellular calcium.
A. Fluorescence-Based Assay of Store-Operated Calcium Entry in Orai1/STIM1 Stable Cells.
Cells stably expressing recombinant human STIM1 and Orai1 are generated by transfecting a human Orai1 expression plasmid (pcDNA3.1-Orai1-cmyc) into HEK-293 cells stably overexpressing human STIM1 (Roos et al. 2005 JCB 169(3): 435-445). Colonies of cells stably expressing both STIM1 and Orai1 proteins are selected and then subcloned by limiting dilution. Cells were cultured at 37° C./6% CO2 in complete medium with 10% FBS and appropriate selection markers.
The day prior to performing the assay Orai1/STIM1 stable cells are plated in 50 μL of complete medium at 90-95% confluence in a 384 well plate. Cells are grown at 37° C./6% CO2 overnight. On the day of the assay, 1.5 μM fluo-4-AM (Invitrogen) in complete medium is added to the cells, which are then incubated for 1 hour at RT. Cells are washed once in Ca^2+-free HBSS (Hank's buffered saline solution) and 35 μl of Ca^2+-free HBSS is added to each well. Test compounds are added to wells in a 10 μL Ca^2+-free HBSS solution, prepared at 4.5× the desired final concentration, and incubated for 30 minutes at RT. The initial baseline fluorescence signal is then measured with a FLIPR^384 (Molecular Devices) plate reader. Calcium entry is initiated by adding 5 μl of 10×CaCl2 (10 mM) in HBSS, and changes in cellular fluorescence are measured with the FLIPR^384 plate reader. In each well, the magnitude of the fluorescence signal as a result of calcium entry into the cell is determined by calculating the difference between the peak fluorescence signal measured after calcium addition and the initial baseline fluorescence signal (designated Peak-Basal). IC50 values are typically calculated as the concentration that inhibited 50% of the Peak-Basal signal.

RBL-2H3 cells = assay: Fluorescence-based assay of store-operated calcium entry in RBL-2H3 cells; format: cell-based, rat; conditions: Rattus norvegicus, thapsigargin, inhibition of Upslope of fluorescence after calcium addition, read-out: RBL-2H3 (IC50, μmol)
Procedure: as §1
B. Fluorescence-Based Assay of Store-Operated Calcium Entry in RBL-2H3 Cells.
RBL-2H3 cells are obtained from ATCC and maintained in complete medium with 10% FBS at 37° C./6% CO2.
The day prior to performing the assay, RBL-2H3 cells are plated in 50 μL of complete medium in a 384 well plate. Cells are grown at 37° C./6% CO2 overnight and grow to 50-60% confluence by the next day. On the assay day, 1.5 µM Fluo-4-AM dye (Invitrogen) in complete medium is added and incubated for 1 hour at RT. Cells are washed twice in Ca^2+-free HBSS buffer and 35 μL Ca^2+-free HBSS buffer is added to each well. 10 μL of a test compound prepared in a Ca^2+-free HBSS solution at 4.5× of the desired concentration is added to a well and incubated for 5 minutes at RT. 10 μL of thapsigargin prepared in a Ca^2+-free HBSS solution at 5.5× of the desired concentration (5.5 uM) is added to each well and incubated for an additional 25 minutes. The initial baseline fluorescence signal is measured with a FLIPR^384 (Molecular Devices) plate reader. 5 μL of 12× calcium in HBSS (12 mM) is added and changes in cellular fluorescence are measured with the FLIPR^384 plate reader. In each well, the change in the fluorescent signal as a function of time due to calcium entry into the cell is determined by calculating the difference between the fluorescent signal measured 7 seconds after calcium addition and the initial baseline fluorescence signal at time zero (t=0). This parameter is designated Upslope. The IC50 value is calculated as the concentration at which 50% of the Upslope is inhibited.

T1 sequence (Q96D31 whole entry): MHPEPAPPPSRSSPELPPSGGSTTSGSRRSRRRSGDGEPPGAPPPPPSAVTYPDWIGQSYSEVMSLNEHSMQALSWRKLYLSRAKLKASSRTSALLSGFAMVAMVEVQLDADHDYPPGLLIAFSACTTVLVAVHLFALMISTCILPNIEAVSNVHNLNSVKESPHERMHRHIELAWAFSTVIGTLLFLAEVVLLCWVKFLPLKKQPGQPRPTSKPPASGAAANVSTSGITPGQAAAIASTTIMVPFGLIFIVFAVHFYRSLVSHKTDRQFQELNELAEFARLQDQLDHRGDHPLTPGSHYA

| SMILES | IC50 (Orai1/STIM1) | IC50 (RBL-2H3 cells) |
| --- | --- | --- |
| Cc1cc2c(cc1-c1ccc(NCc3ccccc3F)nc1)OC(F)(F)O2 [Compound 21] | < 600 nM | < 600 nM |
| COc1cc(C)c(-c2cnc(NCc3c(F)cccc3F)nc2)cn1 [Compound 128, N-(2,6-difluorobenzyl)-5-(6-methoxy-4-methylpyridin-3-yl)pyrimidin-2-amine] | < 600 nM | < 600 nM |
| Cn1nc(C(F)(F)F)cc1-c1ccc(NC(=O)c2ccccc2F)nc1 [Compound 72, (2-fluorophenyl)-N-{5-[1-methyl-3-(trifluoromethyl)pyrazol-5-yl](2-pyridyl)}carboxamide] | < 600 nM | < 600 nM |
| Fc1cccc(CNc2ccc(-c3cc4c(cc3Cl)OC(F)(F)O4)cn2)c1 [Compound 16] | 600 to 1200 nM | < 600 nM |
| Cn1nc(C(F)(F)F)cc1-c1cnc(OCc2c(F)cccc2F)nc1 [Compound 63] | – | > 1200 nM |
| Cc1cc2c(cc1-c1cnc(NCc3c(F)cccc3F)nc1)OC(F)(F)O2 [Compound 32, 5-(2,2-difluoro-6-methyl-1,3-benzodioxol-5-yl)-N-[(2,6-difluorophenyl)methyl]pyrimidin-2-amine] | – | < 600 nM |
| CCn1nc(C(F)(F)F)cc1-c1ccc(NCc2ccccc2F)cn1 [Compound 88] | – | < 600 nM |
| FC1(F)Oc2cc(Cl)c(-c3ccc(NCc4ccccc4Cl)nc3)cc2O1 [Compound 10, 5-(6-chloro-2,2-difluorobenzo[d][1,3]dioxol-5-yl)-N-(2-chlorobenzyl)pyridin-2-amine] | > 1200 nM | < 600 nM |
| Cc1cc2c(cc1-c1ccc(OCc3c(F)cccc3F)nc1)OC(F)(F)O2 [Compound 66] | – | < 600 nM |
| Fc1cccc(F)c1CNc1ccc(-c2nc3c(cc2Cl)OCCO3)cn1 [Compound 45, 5-(7-chloro-2,3-dihydro-[1,4]dioxino[2,3-b]pyridin-6-yl)-N-(2,6-difluorobenzyl)pyridin-2-amine] | – | < 600 nM |
| Cc1cc(F)ccc1CNc1ccc(-c2nc3c(cc2Cl)OCCO3)cn1 [Compound 46] | 600 to 1200 nM | < 600 nM |
| Cn1nc(C(F)(F)F)cc1-c1cnc(NCc2ccccc2F)nc1 [Compound 96, N-(2-fluorobenzyl)-5-(1-methyl-3-(trifluoromethyl)-1H-pyrazol-5-yl)pyrimidin-2-amine] | < 600 nM | < 600 nM |
| Fc1cccc(CNc2ccc(-c3cc4c(cc3Cl)OC(F)(F)O4)cn2)c1Cl [Compound 8, 5-(6-chloro-2,2-difluorobenzo[d][1,3]dioxol-5-yl)-N-(2-chloro-3-fluorobenzyl)pyridin-2-amine] | > 1200 nM | < 600 nM |
| Cn1nc(C(F)(F)F)cc1-c1cnc(NCc2c(F)cccc2F)nc1 [Compound 94, N-(2,6-difluorobenzyl)-5-(1-methyl-3-(trifluoromethyl)-1H-pyrazol-5-yl)pyrimidin-2-amine] | – | < 600 nM |
| Cc1sc(C(F)(F)F)nc1-c1ccc(NCc2ccccc2F)nc1 [Compound 26] | – | < 600 nM |
| Cn1nc(C(F)(F)F)cc1-c1ccc(OCc2c(F)cccc2F)nc1 [Compound 67] | – | 600 to 1200 nM |
| Cc1cc2c(cc1-c1cnc(OCc3c(F)cccc3F)nc1)OC(F)(F)O2 [Compound 62] | – | 600 to 1200 nM |

More lines, now with the values ahead:

| IC50 (Orai1/STIM1) | IC50 (RBL-2H3 cells) | SMILES |
| --- | --- | --- |
| 600 to 1200 nM | < 600 nM | Cc1cc(C(F)(F)F)nn1-c1ccc(NCc2c(F)cncc2F)nc1 [Compound 124, N-((3,5-difluoropyridin-4-yl)methyl)-5-(5-methyl-3-(trifluoromethyl)-1H-pyrazol-1-yl)pyridin-2-amine] |
| < 600 nM | < 600 nM | Fc1cccc(F)c1CNc1ncc(Oc2ccccc2C(F)(F)F)cn1 [Compound 126, N-(2,6-difluorobenzyl)-5-(2-(trifluoromethyl)phenoxy)pyrimidin-2-amine] |
| < 600 nM | < 600 nM | Cn1nc(C(F)(F)F)cc1-c1ccc(NCc2ccc(F)cc2F)nc1 [Compound 80, 5-(1-methyl-3-(trifluoromethyl)-1H-pyrazol-5-yl)-N-(2,4-difluorobenzyl)pyridin-2-amine] |
| < 600 nM | < 600 nM | Cc1nc(C(F)(F)F)cn1-c1ccc(NCc2c(F)cccc2F)nc1 [Compound 106, N-(2,6-difluorobenzyl)-5-(2-methyl-4-(trifluoromethyl)-1H-imidazol-1-yl)pyridin-2-amine] |
| 600 to 1200 nM | < 600 nM | Cc1cc2c(cc1-c1ccc(NCc3c(F)cccc3F)nc1)CCC2 [Compound 17] |
| > 1200 nM | 600 to 1200 nM | Cn1nc(C(F)(F)F)cc1-c1cnc(NCc2c(F)cccc2F)cc1F [Compound 76, N-(2,6-difluorobenzyl)-4-fluoro-5-(1-methyl-3-(trifluoromethyl)-1H-pyrazol-5-yl)pyridin-2-amine] |
| – | < 600 nM | Cc1cc2c(cc1-c1ccc(NCc3c(F)ccc(F)c3F)nc1)OC(F)(F)O2 [Compound 25] |
| – | > 1200 nM | CCc1ccccc1Oc1ccc(NCc2c(F)cccc2F)nc1 [Compound 137] |
| < 600 nM | < 600 nM | Cn1nc(C(F)(F)F)cc1-c1ccc(NCc2c(F)cncc2F)nc1 [Compound 84, N-((3,5-difluoropyridin-4-yl)methyl)-5-(1-methyl-3-(trifluoromethyl)-1H-pyrazol-5-yl)pyridin-2-amine] |
| – | < 600 nM | Fc1ccc(C(F)(F)F)c(Oc2ccc(NCc3c(F)cccc3F)nc2)c1 [Compound 133, N-(2,6-difluorobenzyl)-5-(5-fluoro-2-(trifluoromethyl)phenoxy)pyridin-2-amine] |
| < 600 nM | < 600 nM | Fc1cc(F)c(CNc2ccc(-n3nc(C(F)(F)F)cc3C(F)(F)F)cn2)c(F)c1 [Compound 102, 5-(3,5-bis(trifluoromethyl)-1H-pyrazol-1-yl)-N-(2,4,6-trifluorobenzyl)pyridin-2-amine] |
| – | < 600 nM | Cn1nc(C(F)(F)F)cc1-c1ncc(NCc2c(F)cccc2F)cc1F [Compound 91] |
| – | < 600 nM | Cc1sc(C(F)(F)F)nc1-c1ccc(NCc2c(F)cc(F)cc2F)nc1 [Compound 27] |
| – | < 600 nM | Cc1cc2c(cc1-c1ccc(NCc3c(F)cc(F)cc3F)nc1)OC(F)(F)O2 [Compound 24] |
| – | < 600 nM | Fc1cccc(F)c1CNc1ccc(Oc2cc(C(F)(F)F)ccc2C(F)(F)F)cn1 [Compound 141] |
| – | < 600 nM | Fc1cc(F)c(CNc2ccc(Oc3cc(F)ccc3C(F)(F)F)cn2)c(F)c1 [Compound 138] |
| – | < 600 nM | CCn1nc(C(F)(F)F)cc1-c1ccc(NCc2c(F)cccc2F)cn1 [Compound 89] |
| – | > 1200 nM | CCc1ccccc1Oc1ccc(NCc2c(F)cc(F)cc2F)nc1 [Compound 136] |
| – | 600 to 1200 nM | Fc1cc(F)c(CNc2ccc(Oc3cc(C(F)(F)F)ccc3C(F)(F)F)cn2)c(F)c1 [Compound 140] |
| – | < 600 nM | Fc1ccc(C(F)(F)F)c(Oc2ccc(NCc3c(F)cncc3F)nc2)c1 [Compound 139] |
| – | < 600 nM | Cn1nc(C(F)(F)F)cc1-c1ccc(NCc2c(F)cc(F)cc2F)cn1 [Compound 87] |
